Laboratory results from patent US6156700A, “3-(1,2-Benzisothiazol- and isoxazol-5-yl)-2,4(1H,3H)-pyrimidinedione or thione and 3-(1,2-benzisothiazol- and isoxazol-5-yl)-4(3H)-pyrimidinone or thione herbicidal agents” (American Cyanmid Company, priority 1998, dated 2000).

How the values were obtained:
ABUTH [1] = assay: Preemergence herbicidal evaluation; assay type: in vivo; parameters: scale not given here
Protocol: (§1) The preemergence and postemergence herbicidal properties of certain compounds of the present invention are compared with certain compounds disclosed in U.S. Pat. Nos. 5,484,763 and 5,523,278. The evaluations are performed as described in Examples 185 and 186. Data in Tables V and VI are reported by the compound number given in Example 185 for the compounds of this invention or by comparative compound letter for the compounds disclosed in U.S. Pat. Nos. 5,484,763 and 5,523,278.

AMBEL [2] = assay: Preemergence herbicidal evaluation; assay type: in vivo; parameters: scale not given here
Protocol: as §1

CASOB [3] = assay: Preemergence herbicidal evaluation; assay type: in vivo; parameters: scale not given here
Protocol: as §1

CHEAL [4] = assay: Preemergence herbicidal evaluation; assay type: in vivo; parameters: scale not given here
Protocol: as §1

ECHCG [5] = assay: Preemergence herbicidal evaluation; assay type: in vivo; parameters: scale not given here
Protocol: as §1

GALAP [6] = assay: Preemergence herbicidal evaluation; assay type: in vivo; parameters: scale not given here
Protocol: as §1

GLXMAW [7] = assay: Preemergence herbicidal evaluation; assay type: in vivo; parameters: scale not given here
Protocol: as §1

IPOSS [8] = assay: Preemergence herbicidal evaluation; assay type: in vivo; parameters: scale not given here
Protocol: as §1

SETVI [9] = assay: Preemergence herbicidal evaluation; assay type: in vivo; parameters: scale not given here
Protocol: as §1

ZEAMX [10] = assay: Preemergence herbicidal evaluation; assay type: in vivo; parameters: scale not given here
Protocol: as §1

ORYSAT [11] = assay: Preemergence herbicidal evaluation; assay type: in vivo, Oryza sativa; parameters: scale not given here
Protocol: as §1

ABUTH [12] = assay: Postemergence herbicidal evaluation; assay type: in vivo
AMBEL [13] = assay: Postemergence herbicidal evaluation; assay type: in vivo
CASOB [14] = assay: Postemergence herbicidal evaluation; assay type: in vivo
CHEAL [15] = assay: Postemergence herbicidal evaluation; assay type: in vivo
GALAP [16] = assay: Postemergence herbicidal evaluation; assay type: in vivo
IPOSS [17] = assay: Postemergence herbicidal evaluation; assay type: in vivo
ECHCG [18] = assay: Postemergence herbicidal evaluation; assay type: in vivo
SETVI [19] = assay: Postemergence herbicidal evaluation; assay type: in vivo
GLXMAW [20] = assay: Postemergence herbicidal evaluation; assay type: in vivo
ORYSAT [21] = assay: Postemergence herbicidal evaluation; assay type: in vivo, Oryza sativa
ZEAMX [22] = assay: Postemergence herbicidal evaluation; assay type: in vivo

`Cc1nsc2ccc(N3C(=O)C4=C(CCCC4)C3=O)cc12` [B] gave a herbicidal effect rating (ABUTH [1]; 0.0313-0.0320 kg/ha) of 0.0, a herbicidal effect rating (ABUTH [1]; 0.0620-0.0630 kg/ha) of 3.0 and a herbicidal effect rating (ABUTH [1]; 0.2500 kg/ha) of 2.0. The herbicidal effect rating (ABUTH [1]; 0.5000 kg/ha) was 5.0, the herbicidal effect rating (AMBEL [2]; 0.0313-0.0320 kg/ha) was 0.0 and the herbicidal effect rating (AMBEL [2]; 0.0620-0.0630 kg/ha) was 0.0. For the same compound, the herbicidal effect rating (AMBEL [2]; 0.1250 kg/ha) was 2.0, the herbicidal effect rating (AMBEL [2]; 0.2500 kg/ha) was 3.0 and the herbicidal effect rating (AMBEL [2]; 0.5000 kg/ha) was 8.0. For the same compound, the herbicidal effect rating (CASOB [3]; 0.0313-0.0320 kg/ha) was 0.0, the herbicidal effect rating (CASOB [3]; 0.0620-0.0630 kg/ha) was 0.0 and the herbicidal effect rating (CASOB [3]; 0.1250 kg/ha) was 0.0. It also gave a herbicidal effect rating (CASOB [3]; 0.2500 kg/ha) of 0.0, a herbicidal effect rating (CASOB [3]; 0.5000 kg/ha) of 0.0 and a herbicidal effect rating (CHEAL [4]; 0.0313-0.0320 kg/ha) of 9.0. For the same compound, the herbicidal effect rating (CHEAL [4]; 0.0620-0.0630 kg/ha) was 6.0, the herbicidal effect rating (CHEAL [4]; 0.1250 kg/ha) was 9.0 and the herbicidal effect rating (CHEAL [4]; 0.2500 kg/ha) was 9.0. For the same compound, the herbicidal effect rating (CHEAL [4]; 0.5000 kg/ha) was 9.0, the herbicidal effect rating (ECHCG [5]; 0.0313-0.0320 kg/ha) was 0.0 and the herbicidal effect rating (ECHCG [5]; 0.0620-0.0630 kg/ha) was 0.0. For the same compound, the herbicidal effect rating (ECHCG [5]; 0.1250 kg/ha) was 3.0, the herbicidal effect rating (ECHCG [5]; 0.2500 kg/ha) was 5.0 and the herbicidal effect rating (ECHCG [5]; 0.5000 kg/ha) was 5.0. The herbicidal effect rating (GALAP [6]; 0.0313-0.0320 kg/ha) was 0.0, the herbicidal effect rating (GALAP [6]; 0.0620-0.0630 kg/ha) was 0.0 and the herbicidal effect rating (GALAP [6]; 0.1250 kg/ha) was 5.0. It also gave a herbicidal effect rating (GALAP [6]; 0.2500 kg/ha) of 9.0, a herbicidal effect rating (GALAP [6]; 0.5000 kg/ha) of 7.0 and a herbicidal effect rating (GLXMAW [7]; 0.0313-0.0320 kg/ha) of 0.0. It also gave a herbicidal effect rating (GLXMAW [7]; 0.0620-0.0630 kg/ha) of 0.0, a herbicidal effect rating (GLXMAW [7]; 0.1250 kg/ha) of 0.0 and a herbicidal effect rating (GLXMAW [7]; 0.2500 kg/ha) of 1.0. For the same compound, the herbicidal effect rating (GLXMAW [7]; 0.5000 kg/ha) was 1.0, the herbicidal effect rating (IPOSS [8]; 0.0313-0.0320 kg/ha) was 0.0 and the herbicidal effect rating (IPOSS [8]; 0.0620-0.0630 kg/ha) was 0.0. It also gave a herbicidal effect rating (IPOSS [8]; 0.1250 kg/ha) of 0.0, a herbicidal effect rating (IPOSS [8]; 0.2500 kg/ha) of 2.0 and a herbicidal effect rating (IPOSS [8]; 0.5000 kg/ha) of 5.0. It also gave a herbicidal effect rating (SETVI [9]; 0.0313-0.0320 kg/ha) of 0.0, a herbicidal effect rating (SETVI [9]; 0.0620-0.0630 kg/ha) of 0.0 and a herbicidal effect rating (SETVI [9]; 0.1250 kg/ha) of 2.0. The herbicidal effect rating (SETVI [9]; 0.2500 kg/ha) was 6.0, the herbicidal effect rating (SETVI [9]; 0.5000 kg/ha) was 4.0 and the herbicidal effect rating (ZEAMX [10]; 0.0313-0.0320 kg/ha) was 0.0. For the same compound, the herbicidal effect rating (ZEAMX [10]; 0.0620-0.0630 kg/ha) was 0.0, the herbicidal effect rating (ZEAMX [10]; 0.1250 kg/ha) was 0.0 and the herbicidal effect rating (ZEAMX [10]; 0.2500 kg/ha) was 0.0. It also gave a herbicidal effect rating (ZEAMX [10]; 0.5000 kg/ha) of 1.0, a herbicidal effect rating (ORYSAT [11]; 0.0313-0.0320 kg/ha) of 0.0 and a herbicidal effect rating (ORYSAT [11]; 0.0620-0.0630 kg/ha) of 0.0. The herbicidal effect rating (ORYSAT [11]; 0.1250 kg/ha) was 2.0, the herbicidal effect rating (ORYSAT [11]; 0.2500 kg/ha) was 2.0 and the herbicidal effect rating (ORYSAT [11]; 0.5000 kg/ha) was 4.0. It also gave a herbicidal effect rating (ABUTH [12]; 0.0157-0.0160 kg/ha) of 8.0, a herbicidal effect rating (ABUTH [12]; 0.0313-0.0320 kg/ha) of 8.0 and a herbicidal effect rating (ABUTH [12]; 0.0625-0.0640 kg/ha) of 9.0. The herbicidal effect rating (ABUTH [12]; 0.1250 kg/ha) was 9.0, the herbicidal effect rating (ABUTH [12]; 0.2500 kg/ha) was 9.0 and the herbicidal effect rating (ABUTH [12]; 0.5000 kg/ha) was 9.0. The herbicidal effect rating (AMBEL [13]; 0.0157-0.0160 kg/ha) was 2.0, the herbicidal effect rating (AMBEL [13]; 0.0313-0.0320 kg/ha) was 6.0 and the herbicidal effect rating (AMBEL [13]; 0.0625-0.0640 kg/ha) was 8.0. The herbicidal effect rating (AMBEL [13]; 0.1250 kg/ha) was 8.0, the herbicidal effect rating (AMBEL [13]; 0.2500 kg/ha) was 9.0 and the herbicidal effect rating (AMBEL [13]; 0.5000 kg/ha) was 9.0. For the same compound, the herbicidal effect rating (CASOB [14]; 0.0157-0.0160 kg/ha) was 6.0, the herbicidal effect rating (CASOB [14]; 0.0313-0.0320 kg/ha) was 7.0 and the herbicidal effect rating (CASOB [14]; 0.0625-0.0640 kg/ha) was 8.0. The herbicidal effect rating (CASOB [14]; 0.1250 kg/ha) was 8.0, the herbicidal effect rating (CASOB [14]; 0.2500 kg/ha) was 9.0 and the herbicidal effect rating (CASOB [14]; 0.5000 kg/ha) was 9.0. The herbicidal effect rating (CHEAL [15]; 0.0157-0.0160 kg/ha) was 3.0, the herbicidal effect rating (CHEAL [15]; 0.0313-0.0320 kg/ha) was 7.0 and the herbicidal effect rating (CHEAL [15]; 0.0625-0.0640 kg/ha) was 7.0. The herbicidal effect rating (CHEAL [15]; 0.1250 kg/ha) was 9.0, the herbicidal effect rating (CHEAL [15]; 0.2500 kg/ha) was 8.0 and the herbicidal effect rating (CHEAL [15]; 0.5000 kg/ha) was 9.0. For the same compound, the herbicidal effect rating (GALAP [16]; 0.0157-0.0160 kg/ha) was 5.0, the herbicidal effect rating (GALAP [16]; 0.0313-0.0320 kg/ha) was 7.0 and the herbicidal effect rating (GALAP [16]; 0.0625-0.0640 kg/ha) was 7.0. It also gave a herbicidal effect rating (GALAP [16]; 0.1250 kg/ha) of 7.0, a herbicidal effect rating (GALAP [16]; 0.2500 kg/ha) of 8.0 and a herbicidal effect rating (GALAP [16]; 0.5000 kg/ha) of 8.0. For the same compound, the herbicidal effect rating (IPOSS [17]; 0.0157-0.0160 kg/ha) was 6.0, the herbicidal effect rating (IPOSS [17]; 0.0313-0.0320 kg/ha) was 7.0 and the herbicidal effect rating (IPOSS [17]; 0.0625-0.0640 kg/ha) was 8.0. It also gave a herbicidal effect rating (IPOSS [17]; 0.1250 kg/ha) of 8.0, a herbicidal effect rating (IPOSS [17]; 0.2500 kg/ha) of 8.0 and a herbicidal effect rating (IPOSS [17]; 0.5000 kg/ha) of 9.0. It also gave a herbicidal effect rating (ECHCG [18]; 0.0157-0.0160 kg/ha) of 0.0, a herbicidal effect rating (ECHCG [18]; 0.0313-0.0320 kg/ha) of 2.0 and a herbicidal effect rating (ECHCG [18]; 0.0625-0.0640 kg/ha) of 2.0. For the same compound, the herbicidal effect rating (ECHCG [18]; 0.1250 kg/ha) was 4.0, the herbicidal effect rating (ECHCG [18]; 0.2500 kg/ha) was 5.0 and the herbicidal effect rating (ECHCG [18]; 0.5000 kg/ha) was 6.0. The herbicidal effect rating (SETVI [19]; 0.0157-0.0160 kg/ha) was 0.0, the herbicidal effect rating (SETVI [19]; 0.0313-0.0320 kg/ha) was 0.0 and the herbicidal effect rating (SETVI [19]; 0.0625-0.0640 kg/ha) was 2.0. It also gave a herbicidal effect rating (SETVI [19]; 0.1250 kg/ha) of 4.0, a herbicidal effect rating (SETVI [19]; 0.2500 kg/ha) of 5.0 and a herbicidal effect rating (SETVI [19]; 0.5000 kg/ha) of 5.0. It also gave a herbicidal effect rating (GLXMAW [20]; 0.0157-0.0160 kg/ha) of 5.5, a herbicidal effect rating (GLXMAW [20]; 0.0313-0.0320 kg/ha) of 5.5 and a herbicidal effect rating (GLXMAW [20]; 0.0625-0.0640 kg/ha) of 5.5. It also gave a herbicidal effect rating (GLXMAW [20]; 0.1250 kg/ha) of 6.0, a herbicidal effect rating (GLXMAW [20]; 0.2500 kg/ha) of 7.0 and a herbicidal effect rating (GLXMAW [20]; 0.5000 kg/ha) of 7.5. For the same compound, the herbicidal effect rating (ORYSAT [21]; 0.0157-0.0160 kg/ha) was 3.5, the herbicidal effect rating (ORYSAT [21]; 0.0313-0.0320 kg/ha) was 4.0 and the herbicidal effect rating (ORYSAT [21]; 0.0625-0.0640 kg/ha) was 4.5. It also gave a herbicidal effect rating (ORYSAT [21]; 0.1250 kg/ha) of 4.5, a herbicidal effect rating (ORYSAT [21]; 0.2500 kg/ha) of 5.5 and a herbicidal effect rating (ORYSAT [21]; 0.5000 kg/ha) of 6.0. It also gave a herbicidal effect rating (ZEAMX [22]; 0.0157-0.0160 kg/ha) of 5.0, a herbicidal effect rating (ZEAMX [22]; 0.0313-0.0320 kg/ha) of 5.5 and a herbicidal effect rating (ZEAMX [22]; 0.0625-0.0640 kg/ha) of 5.0. The herbicidal effect rating (ZEAMX [22]; 0.1250 kg/ha) was 5.5, the herbicidal effect rating (ZEAMX [22]; 0.2500 kg/ha) was 6.0 and the herbicidal effect rating (ZEAMX [22]; 0.5000 kg/ha) was 5.5.
